From paper PMC9583845, “Characterization of the chicken melanocortin 5 receptor and its potential role in regulating hepatic glucolipid metabolism” (Frontiers in Physiology, 2022)

Legend:
[1] = tested on: FASN mRNA, primary chicken hepatocytes; assay: FASN mRNA in primary chicken hepatocytes, RT-qPCR; format: cell-based; settings: 0.1–100 nM, 6 h, N = 4, Figure 8H, listed as not decreased
Procedure: (§1) To evaluate the effect of ACTH1-39 on chicken liver, the chicken hepatocytes were prepared and maintained as a monolayer culture. Briefly, one-month-old male chicken hepatocytes were isolated by perfusion of a liver with Ca^2+-free KRB buffer to remove blood cells, and being digested with 0.25% collagenase-I for 10 min. Hepatocytes were obtained following filtering and washing using M199 medium. Then the hepatocytes were plated in a Corning CellBIND 48-well microplate (Corning, NY, cat. no.3338) with M199 medium containing 100 U/ml penicillin and […] streptomycin (Gibco), 5 μg/ml bovine insulin (Sigma), and 5% FBS at 37°C in a 5% CO2 atmosphere. To adhere to the wall, the cells were incubated on the 48-well plate for 4 h.
(§2) For quantitative real-time PCR, primary cultured chicken hepatocytes were treated with various concentrations of ACTH1-39 (or other composition) at 37°C for 6 h. The relative amount of mRNA was calculated using the comparative Ct method. Chicken β-actin gene was used as the reference gene. Amplification of specific transcripts was confirmed by analyzing the melting curve profile performed at the end of each run and by determining the size of the PCR products using agarose electrophoresis and ethidium bromide staining.

chicken MC5R = chicken MC5R (Gallus gallus, UniProt O73671); assay: pGL3-CRE-luciferase reporter assay, CHO cells expressing chicken MC5R; format: cell-based; settings: for ability to activate / sensitivity of cMC5R (in words, ranking): CHO cells expressing cMC5R
Sequence of chicken MC5R (O73671 1-325): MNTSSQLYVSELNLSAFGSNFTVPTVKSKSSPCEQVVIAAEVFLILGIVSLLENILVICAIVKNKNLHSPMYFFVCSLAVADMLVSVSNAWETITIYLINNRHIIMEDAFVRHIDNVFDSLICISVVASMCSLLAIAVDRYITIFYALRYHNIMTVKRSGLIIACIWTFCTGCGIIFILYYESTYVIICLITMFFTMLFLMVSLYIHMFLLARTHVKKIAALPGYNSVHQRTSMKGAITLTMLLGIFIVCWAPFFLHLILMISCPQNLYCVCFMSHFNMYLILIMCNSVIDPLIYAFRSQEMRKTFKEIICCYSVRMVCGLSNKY
Description: All chemicals were purchased from Sigma-Aldrich (St. Louis, MO, United States) and the restriction enzymes were obtained from TaKaRa (Dalian, China). […] All primers used in this study were synthesized by Beijing Genome Institute (BGI, China) and listed in Supplementary Table 1.
(§3) The expression plasmids encoding MC5R, MRAP1 and MRAP2 were established by cloning their entire open reading frame (ORF) into the pcDNA3.1 (+) expression vector (Invitrogen).
(§4) The cells were then transfected with a mixture containing 700 ng pGL3-CRE-Luciferase reporter construct, 200 ng of receptor expression plasmid (or empty pcDNA3.1 vector as a negative control), 20 ng of pRL-TK construct (containing a Renilla luciferase gene, used as an internal control), and 2 μl jetPRIME transfection reagent (Polyplus Transfection, Illkirch, France) in 200 μL buffer. […] After removal of the medium from the 96-well plate, the cells were treated with 100 μl ligand-containing medium (or ligand-free medium) for 6 h. Finally, CHO cells were lysed with 1 × passive lysis buffer for luciferase assay (Promega) and the luciferase activity of the cell lysate was measured by a Multimode Microplate Reader (TriStar LB941, EG&G Berthold, Germany) according to the manufacturer’s instruction.
(§5) All statistical analysis was performed using GraphPad Prism 9 (Graph Pad Software Inc., San Diego, CA). The dose-response curves were constructed using nonlinear regression models. Student’s test was used to compare two groups, for more than two groups one-way ANOVA was performed followed by Dunnett’s test. To validate our results, all in-vitro experiments were repeated three times, and representative data are reported.

[2] = tested on: ACACA mRNA, primary chicken hepatocytes; assay: ACACA mRNA in primary chicken hepatocytes, RT-qPCR; format: cell-based; settings: 0.1–100 nM, 6 h, N = 4, Figure 8G, listed as not decreased
Procedure: as §1, §2

chicken MC4R = tested on: chicken MC4R; parameters: method as in Zhang et al., 2017; Thomas et al., 2018; settings: ref Zhang et al., 2017; Thomas et al., 2018; cited from earlier work
chicken MC1R = tested on: chicken MC1R; parameters: method as in Ling et al., 2003; Ling et al., 2004; Mundy, 2005; settings: ref Ling et al., 2003, 2004, Mundy, 2005; cited from earlier work
[3] = tested on: CREB phosphorylation (cMC5R); assay: CREB phosphorylation, western blot, CHO cells expressing cMC5R; format: cell-based, chicken; settings: 10 nM, 10 min; p-CREB normalized by total CREB; three independent experiments; Figure 2D
Procedure: To investigate whether the activation of cMC5R can enhance CREB phosphorylation, 100 ng of cMC5R expression plasmid, or an empty pcDNA3.1 (+) vector, was transfected into CHO cells cultured in a 24-well plate (Nunc) using jetPRIME transfection reagent (Polyplus Transfection). After 24 h transfection, ACTH (10 nM) or α-MSH (10 nM) was added to treat the cells for 10 min. Then the whole-cell lysates were used to examine the level of phosphorylated CREB using western blot. The level of total CREB protein was also examined and used as internal controls in each experiment. The phosphorylated CREB (p-CREB) and total CREB levels were quantified by densitometric analysis with ImageJ software. Relative optical densities of p-CREB normalized by CREB levels compared to the densities in the absence of ACTH (or α-MSH) are shown as relative p-CREB/CREB expression (fold changes).

chicken MC5R + MRAP1 = chicken MC5R + MRAP1 (Gallus gallus, UniProt O73671); assay: pGL3-CRE-luciferase reporter assay, CHO cells co-expressing MC5R and cMRAP1; format: cell-based; settings: for effect of MRAP1 co-expression on sensitivity of MC5R: vs MC5R expressed alone
Sequence of chicken MC5R + MRAP1 (O73671 1-325): as above
Procedure: as §3, §4, §5

chicken MC3R = tested on: chicken MC3R; parameters: method as in Zhang et al., 2017; Thomas et al., 2018; settings: ref Zhang et al., 2017; Thomas et al., 2018; cited from earlier work
[4] = tested on: primary chicken hepatocytes; assay: Glucose production from primary cultured chicken hepatocytes; format: cell-based; settings: for glucose production (in words): primary chicken hepatocytes, 100 nM for 30 or 60 min, or 0.1–100 nM for 60 min, gluconeogenic substrates 20 mM lactate, 2 mM pyruvate, four independent experiments, Figures 7A,B
Procedure: as §1
Glucose production from primary cultured chicken hepatocytes was measured as previously described ([Collins et al., 2006]). Briefly, cells were washed three times with warm phosphate-buffered saline (PBS) to remove glucose, followed by treatment with 100 nM (or different concentration gradients) chicken ATCH1-39 for 30 min or 60 min in glucose-free medium containing gluconeogenic substrates (20 mM sodium lactate and 2 mM sodium pyruvate). Glucose concentration was determined with a glucose assay kit (Applygen, Beijing, China, catalog no. E1011). Briefly, the 5 µl medium was added into 195 µl reagent and incubated for 20 min at 37°C. Absorbance in 550 nm was measured in a standard glucose solution.

ability to activate / sensitivity of cMC5R (in words, ranking) (chicken MC5R): ACTH1-39 ≈ α-MSH > β-MSH > γ-MSH
ability to activate / sensitivity of cMC5R (in words, ranking) (chicken MC5R; listed as ACTH): highest potency to activate cMC5R
EC50 (chicken MC5R; Table 1 / Figure 3, CHO cells, MC5R alone, 6 h, mean ± SEM of at least three independent experiments (figure: four replicates), read-out: EC50, MC5R expressed alone): 5.91 ± 1.18 nM
EC50 (chicken MC5R + MRAP1; Table 1 / Figure 3, co-expressed with cMRAP1, 6 h, pGL3-CRE-luciferase, mean ± SEM of at least three independent experiments (figure: four replicates)): 2.12 ± 0.37 nM
Substance: H-SYSMEHFRWGKPVGRKRRPIKVYPNGVDEESAESYPMEF-OH [ACTH1-39]
FASN mRNA expression [1]: instead of ACACA, FASN and SCD
ACACA mRNA expression [2]: instead of ACACA, FASN and SCD
activation of chicken MC4R (chicken MC4R): activated by both α-MSH and ACTH
MC1R response (chicken MC1R): promoting intracellular cAMP accumulation
CREB phosphorylation [3]: significantly increased
effect of MRAP1 co-expression on sensitivity of MC5R (chicken MC5R + MRAP1): did not affect the sensitivity of cMC5R to ACTH1-39
effect of MRAP1 co-expression on sensitivity of MC5R (chicken MC5R + MRAP1; listed as ACTH): no effect on the sensitivity of chicken MC5R for ACTH
activation of chicken MC3R (chicken MC3R): activated by both α-MSH and ACTH
time from which glucose production significantly increased ([4]; 100 nM ACTH, 30 and 60 min, Figure 7A): ≥ 0.5 h
dose from which glucose production significantly increased ([4]; 0.1–100 nM ACTH, 60 min, Figure 7B): ≥ 1 nM
glucose production (in words) [4]: enhanced glucose production
glucose production (in words) ([4]; listed as ACTH): induction of gluconeogenesis
glucose production (in words) ([4]; listed as cACTH1-39): significantly increased the level of glucose production
